From PubChem BioAssay AID651779 (The Scripps Research Institute Molecular Screening Center, 2012) come the findings set out here.

One may read the IC50 as the midpoint of a concentration-inhibition curve.

The source made the active and inactive calls.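 How the source made its calls: active means cytotoxic to HEK293 cells with IC50 at or below 10 µM; inactive means IC50 above 10 µM.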

This assay relates to HEK293 viability, CellTiter-Glo ATP luminescence. Put plainly: viability loss in HEK293 cells – cell-based, luminescence, dose response, cytotoxicity control for SRC3 inhibitor project, late-stage follow-up (AID 651779).
For the compound `O=C(CCl)N1N=C(c2ccco2)CC1c1ccco1` (stereo unspecified), the 50% inhibitory concentration (IC50) was 5.77 µM.

With `CC(C)N(c1ccccc1)c1ccc(NC(=O)CCl)cc1`, the concentration for half-maximal inhibition (IC50) was 0.441 µM.

As to `O=C(O)CN1C(=O)/C(=C\c2ccccc2OCc2ccc(Cl)cc2Cl)SC1=S`, the IC50 is > 35.9 µM (inactive).

In the case of `O=C(CCl)N1N=C(c2ccco2)CC1c1cccs1` (stereo unspecified), the IC50 was 2.9 µM.

As for `COc1cc(C2c3cc4c(cc3C(OC3OC5COC(c6cccs6)OC5C(O)C3O)C3COC(=O)C23)OCO4)cc(OC)c1O` (stereo unspecified), the IC50 was 24 µM (inactive).

As to `O=[N+]([O-])c1nn(-c2ccc3c(c2)OCCO3)n(O)c1=Nc1ccccc1`, the IC50 is > 35.9 µM (inactive).

As to `CCc1ccc(/C=C2\SC(=S)N(CCCC(=O)NCCCN3CCOCC3)C2=O)cc1`, the IC50 was 17.9 µM (inactive).

As to `Cc1c(Cl)cccc1N=c1c([N+](=O)[O-])nn(-c2ccc3c(c2)OCCO3)n1O`, the IC50 is > 35.9 µM (inactive).

For the compound `NC(=S)NN=C1CCSc2ccc(Cl)cc21`, the IC50 is 31.4 µM (inactive).

As to `NS(=O)(=O)c1ccc(Nc2nc(-c3cccnc3)cs2)cc1`, the IC50 was > 35.9 µM (inactive).

For `CCc1ccc(N=c2c([N+](=O)[O-])nn(-c3ccc4c(c3)OCCO4)n2O)cc1`, the IC50 is > 35.9 µM (inactive).

Take `S=C(c1ccc(-c2ccccc2)cc1)N1CCOCC1`: the IC50 is > 35.9 µM (inactive).

Consider `COc1cc2c(cc1OC)C(NC(=O)C(F)(F)F)CNC2=O` (stereo unspecified), for which the 50% inhibitory concentration (IC50) is 9.84 µM.

`CN(C)c1ccc(CNC(=O)CCNS(=O)(=O)c2cc(Br)cnc2N)cc1`: the IC50 was > 35.9 µM (inactive).

As to `COc1cc(N=c2c([N+](=O)[O-])nn(-c3ccc4c(c3)OCCO4)n2O)cc(OC)c1`, the IC50 was 25.6 µM (inactive).

As for `Cc1nn(CC(=O)N2CCN(c3cccc(C(F)(F)F)c3)CC2)c(=O)c2cccn12`, the IC50 was > 35.9 µM (inactive).

As to `CCCCC(=O)Nc1cccn2ncnc12`, the IC50 was > 35.9 µM (inactive).

Regarding `O=C(COC(=O)c1ccc[nH]c1=O)Nc1ccc(N2CCCCC2)cc1`, the IC50 is > 35.9 µM (inactive).

In the case of `Cc1ccc(N=c2c([N+](=O)[O-])nn(-c3ccc4c(c3)OCCO4)n2O)c(Cl)c1`, the IC50 was > 35.9 µM (inactive).

As to `O=C(CCl)NC(Cc1ccccc1)c1ccccc1` (stereo unspecified), the IC50 is 22.3 µM (inactive).

In the case of `O=[N+]([O-])c1nn(-c2ccc3c(c2)OCCO3)n(O)c1=Nc1ccc(Cl)cc1`, the IC50 was > 35.9 µM (inactive).

On to `CCOc1ccc(/C=C2\SC(=S)N(CCCC(=O)NCCCN3CCOCC3)C2=O)cc1`, for which the IC50 was > 35.9 µM (inactive).

Take `CC(=O)/C(N=Nc1ccc2c(c1)OCCO2)=C(/C)O`: the IC50 is > 35.9 µM (inactive).

Regarding `O=C(Nc1cccnc1)c1ccc(C(=O)Nc2cccnc2)cc1`, the IC50 is > 35.9 µM (inactive).

On to `Cc1cc(C)cc(N=c2c([N+](=O)[O-])nn(-c3ccc4c(c3)OCCO4)n2O)c1`, for which the IC50 is > 35.9 µM (inactive).

In the case of `Cc1ccc(OCC(=O)c2cc(C)n(-c3ccccc3)c2C)c([N+](=O)[O-])n1`, the IC50 is > 35.9 µM (inactive).

As for `O=C(Nc1nc(-c2ccccn2)cs1)c1cccc(S(=O)(=O)N2CCOCC2)c1`, the IC50 was > 35.9 µM (inactive).

Consider `Cn1nc(C(F)(F)F)c(C#N)c1N1CCN(c2ccc(F)cc2)CC1`, for which the IC50 was 28.3 µM (inactive).

`COc1ccc(/C=C2/SC(=S)N(CCC(=O)O)C2=O)cc1`: the IC50 was > 35.9 µM (inactive).

As for `O=C1CCC2S/C(=C/Nc3ccc(C(F)(F)F)cc3)C(=O)N12` (stereo unspecified), the IC50 was > 35.9 µM (inactive).

In the case of `Cc1c(/C(O)=C2/C(=O)C(=O)N(Cc3cccnc3)C2c2ccccn2)cnn1-c1ccccc1` (stereo unspecified), the IC50 was > 35.9 µM (inactive).

Turning to `Cc1ccc(/C=C2/SC(=S)N(CCCC(=O)Nc3ccc(O)cc3)C2=O)cc1`, the IC50 is > 35.9 µM (inactive).

For the compound `O=[N+]([O-])c1cccc2c1ccc1ncccc12`, the IC50 is > 35.9 µM (inactive).

Turning to `Cc1cccc(NC(=O)c2cc(Cl)ccc2[N+](=O)[O-])c1`, the IC50 was > 35.9 µM (inactive).

As to `c1ccc(-c2nnc(-c3ccccn3)nc2NC2CCCCC2)cc1`, the IC50 was > 35.9 µM (inactive).

For the compound `Cc1cc(N=c2c([N+](=O)[O-])nn(-c3ccc4c(c3)OCCO4)n2O)ccc1Br`, the IC50 is > 35.9 µM (inactive).

Take `Cc1cc(/C=C2\Cc3ccccc3C2=O)c(C)n1-c1ccccc1`: the IC50 is > 35.9 µM (inactive).

As to `Cc1ccc(N=c2c([N+](=O)[O-])nn(-c3ccc4c(c3)OCCO4)n2O)cc1F`, the IC50 was > 35.9 µM (inactive).

With `O=C(Nc1nc2ccccc2s1)C1c2ccccc2Oc2ccccc21`, the IC50 is > 35.9 µM (inactive).

For `S=C(Nc1ccccc1)Nc1ccc(OCc2ccc(Cl)cc2Cl)cc1`, the IC50 was > 35.9 µM (inactive).

For `CC(=O)N1CCN(c2ncnc3ccccc23)CC1`, the IC50 was > 35.9 µM (inactive).

Turning to `COC(=O)c1c(C)n(-c2ccc(OC)cc2)c2ccc(O)cc12`, the IC50 was > 35.9 µM (inactive).

Consider `Cc1ccc(OCC(=O)c2cc(C)n(Cc3cccs3)c2C)c([N+](=O)[O-])n1`, for which the IC50 was > 35.9 µM (inactive).

Turning to `O=C(CCCc1nc(-c2ccccc2Cl)no1)NC1CCCC1`, the IC50 was > 35.9 µM (inactive).

As to `NC(=O)c1sc2nc3c(c(-c4ccco4)c2c1N)CCC3`, the IC50 was > 35.9 µM (inactive).

`CCC(=O)N1CCN(c2ccnc3cc(Cl)ccc23)CC1`: the IC50 is > 35.9 µM (inactive).

On to `Cc1ccc(/C=C2\SC(=S)N(CCCC(=O)NC3CCCC3)C2=O)cc1`, for which the IC50 is > 35.9 µM (inactive).

For the compound `Cc1c(CC(=O)NCCCC(=O)O)c(=O)oc2cc3c(cc12)CCC(C)(C)O3`, the IC50 was > 35.9 µM (inactive).

As to `CCOC(=O)C(=CNc1ccc(NC2=NCC(C)S2)cc1)C(=O)OCC` (stereo unspecified), the IC50 is > 35.9 µM (inactive).

Regarding `CC(C)n1c(SCC(=O)Nc2nc3c(s2)CCCC3)nc2c1c(=O)n(C)c(=O)n2C`, the IC50 was 33.6 µM (inactive).

`O=C(NC(NC(=S)N1CCOCC1)C(Cl)(Cl)Cl)c1ccc(Cl)cc1` (stereo unspecified): the IC50 is > 35.9 µM (inactive).
